Measured values as given in patent US11976064B2, “Toll-like receptor agonists” (Pfizer Inc., priority 2019, dated 2024).

What follows are molecules tested against T1, human toll like receptor 8 (hTLR8) (Homo sapiens, UniProt Q9NR97) (assay: hTLR8 cell functional assay (HEK-Blue hTLR8 SEAP reporter)). Conditions: HEK293 cells stably overexpressing hTLR8, SEAP reporter; geometric mean when tested more than once.
T1 construct: host or cells: HEK293 (HEK-Blue hTLR8)
T1 sequence (Q9NR97 27-1041): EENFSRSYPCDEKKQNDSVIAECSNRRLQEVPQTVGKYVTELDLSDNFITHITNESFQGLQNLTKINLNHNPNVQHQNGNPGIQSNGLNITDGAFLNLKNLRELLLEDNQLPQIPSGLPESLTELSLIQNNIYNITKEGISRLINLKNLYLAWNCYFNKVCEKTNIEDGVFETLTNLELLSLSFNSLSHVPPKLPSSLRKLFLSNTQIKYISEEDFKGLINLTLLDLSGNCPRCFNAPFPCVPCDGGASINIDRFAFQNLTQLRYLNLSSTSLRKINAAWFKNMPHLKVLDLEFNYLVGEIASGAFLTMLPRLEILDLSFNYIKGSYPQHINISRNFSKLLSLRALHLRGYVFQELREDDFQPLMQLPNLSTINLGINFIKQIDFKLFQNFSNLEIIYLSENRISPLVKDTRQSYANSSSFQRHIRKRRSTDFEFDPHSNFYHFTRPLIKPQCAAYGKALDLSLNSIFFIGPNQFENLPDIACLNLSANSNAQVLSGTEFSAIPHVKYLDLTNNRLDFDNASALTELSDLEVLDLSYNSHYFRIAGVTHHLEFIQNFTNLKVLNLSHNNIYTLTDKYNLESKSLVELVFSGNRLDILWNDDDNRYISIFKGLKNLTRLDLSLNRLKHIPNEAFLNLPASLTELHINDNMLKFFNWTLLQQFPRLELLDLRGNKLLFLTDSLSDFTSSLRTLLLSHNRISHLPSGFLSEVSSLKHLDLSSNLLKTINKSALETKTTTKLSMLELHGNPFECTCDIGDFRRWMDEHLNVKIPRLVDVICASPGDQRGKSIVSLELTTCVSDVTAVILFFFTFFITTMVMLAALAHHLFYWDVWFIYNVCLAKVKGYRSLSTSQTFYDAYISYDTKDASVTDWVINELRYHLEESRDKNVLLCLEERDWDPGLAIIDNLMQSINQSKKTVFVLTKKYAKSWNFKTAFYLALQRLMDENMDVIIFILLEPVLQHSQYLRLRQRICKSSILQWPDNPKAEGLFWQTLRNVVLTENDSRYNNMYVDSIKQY
Format: cell-based
Procedure: The Examples described were tested for biological activity in functional cellular assays using HEK293 cells stably overexpressing human TLR7 or TLR8. The assays tested for the ability of each Example to stimulate secretion of interferon alpha (IFNα) in human primary blood mono nuclear cells (PBMC).
To determine the ability of each Example to activate the human toll like receptor 7 (hTLR7) or human toll like receptor 8 (hTLR8), cell-based reporter systems were utilized. HEK293 cells stably overexpressing either hTLR7 or hTLR8 along with a reporter gene containing an optimized secreted embryonic alkaline phosphatase gene (SEAP), under the control of the IFN-b minimal promoter fused to five NF-κB and AP-1-binding sites, were obtained from Invivogen (HEK-Blue™ hTLR7, cat #Hkb-ht1r7; HEK-Blue™ hTLR8, cat #Hkb-ht1r8). Stimulation of hTLR7 or hTLR8 in these cells activates NF-κB and AP-1 and induces the production of SEAP which can be quantified using an alkaline phosphatase detection reagent.
Cells were maintained in Dulbecco's Modified Eagle Media (DMEM) (containing Fetal Bovine Serum (FBS) heat inactivated (10%), Glutamax (2 mM), Penicillin/Streptomycin, Blasticidin (10 μg/ml), Zeocin (100 μg/ml) and Normocin (100 μg/ml)). On day one of the assay, Examples were prepared using 11-point half-log serial dilutions from a 10mM DMSO stock solution and 50 nl was spotted into 384-well Viewplates (PerkinElmer, cat #6007480). Positive control TLR7/8 agonist and negative control (DMSO, no Example) were also spotted within the assay plate and were used to determine percent effect during the analysis process. After resuspension in DMEM assay media containing FBS heat inactivated (10%), Glutamax (2 mM) and Penicillin/Streptomycin, 10,000 cells/20 μl/well were added to previously prepared plates. Plates were incubated overnight (16-20 hrs) at 37° C. in a 5% CO2 environment. Prewetted Microclime lids (Labcyte, LLS-0310) were used to prevent evaporation. On day two of the assay, QUANTI-Blue™ detection reagent was prepared by reconstituting QUANTI-Blue™ powder (InvivoGen, Rep-qb1) with 100 ml of sterile water and allowed to equilibrate to 37° C. for 15 minutes. 20 μl of QUANTI-Blue™ detection reagent was added to each well and plates were incubated at room temperature for 180 min. At the end of the incubation, plates were read on an Envision (Perkin Elmer) plate reader capturing absorbance at 650 nm.
Using Positive (TLR7/8 agonist) and Negative (DMSO) controls, the percent (%) effect was calculated for each Example using the following equation: effect=100−[100*{(Example−Positive Control)/(Negative Control−Positive Control)}]
The % effect at each concentration of each Example was calculated utilizing the ABase software suite (IBDS) and was relative to the amount of SEAP produced in the positive and negative control wells contained within each assay plate. The concentrations and % effect values for each Example were fit using a 4-parameter logistic model in ABase and the concentration of each Example that produced 50% response (EC50) was calculated.

SMILES	EC50 [nM]
CCOCc1nc2c(N)nc3ccccc3c2n1CC(C)(CO)CO [Example 3, 2-((4-amino-2-(ethoxymethyl)-1H-imidazo[4,5-c]quinolin-1-yl)methyl)-2-methylpropane-1,3-diol]	194
CCOCc1nc2c(N)nc(C)c(C)c2n1CC(C)(CO)COC (single isomer, unassigned) [Example 6, 3-(4-amino-2-(ethoxymethyl)-6,7-dimethyl-1H-imidazo[4,5-c]pyridin-1-yl)-2-(methoxymethyl)-2-methylpropan-1-ol]	6400
Cc1nc(N)c2nc(CC(F)(F)F)n(CC(C)(CO)CO)c2c1C [Example 8, 2-((4-amino-6,7-dimethyl-2-(2,2,2-trifluoroethyl)-1H-imidazo[4,5-c]pyridin-1-yl)methyl)-2-methylpropane-1,3-diol]	8020
CCOCc1nc2c(N)nc(C)c(C)c2n1CC(CO)CO [Example 1, 2-((4-amino-2-(ethoxymethyl)-6,7-dimethyl-1H-imidazo[4,5-c]pyridin-1-yl)methyl)propane-1,3-diol]	2550
CCOCc1nc2c(N)nc(C)c(C)c2n1CC(C)(CO)COC (single isomer, unassigned) [Example 7, 3-(4-amino-2-(ethoxymethyl)-6,7-dimethyl-1H-imidazo[4,5-c]pyridin-1-yl)-2-(methoxymethyl)-2-methylpropan-1-ol]	16500
CCOCc1nc2c(N)nc(C)c(C)c2n1CC(C)(CO)CO [Example 2, 2-((4-amino-2-(ethoxymethyl)-6,7-dimethyl-1H-imidazo[4,5-c]pyridin-1-yl)methyl)-2-methylpropane-1,3-diol]	811

Second part, the molecule after the results:

EC50 [nM]	SMILES
325	CCCc1nc2c(N)nc3ccccc3c2n1CC(C)(CO)CO [Example 16, 2-((4-amino-2-propyl-1H-imidazo[4,5-c]quinolin-1-yl)methyl)-2-methylpropane-1,3-diol]
613	CCc1nc2c(N)nc3ccccc3c2n1CC(C)(CO)CO [Example 15, 2-((4-amino-2-ethyl-1H-imidazo[4,5-c]quinolin-1-yl)methyl)-2-methylpropane-1,3-diol]
104	CCCCc1nc2c(N)nc3c(c2n1CC(C)(CO)CO)CCCC3 [Example 13, 2-((4-amino-2-butyl-6,7,8,9-tetrahydro-1H-imidazo[4,5-c]quinolin-1-yl)methyl)-2-methylpropane-1,3-diol]
1440	CCOCc1nc2c(N)nc(C)c(C)c2n1CC(CC)(CO)CO [Example 9, 2-((4-amino-2-(ethoxymethyl)-6,7-dimethyl-1H-imidazo[4,5-c]pyridin-1-yl)methyl)-2-ethylpropane-1,3-diol]
92	CCCCc1nc2c(N)nc3ccccc3c2n1CC(C)(CO)CO [Example 10, 2-((4-amino-2-butyl-1H-imidazo[4,5-c]quinolin-1-yl)methyl)-2-methylpropane-1,3-diol]
247	CCCCc1nc2c(N)nc3c(c2n1CC(C)(CO)CO)CCC3 [Example 14, 2-((4-amino-2-butyl-7,8-dihydrocyclopenta[b]imidazo[4,5-d]pyridin-1(6H)-yl)methyl)-2-methylpropane-1,3-diol]
